Results as given in patent US20230279024A1, “TRIAZINE COMPOUND AND COMPOSITION AND USE THEREOF” (BEIJING FINDCURE BIOSCIENCES, LTD., priority 2020, published 2023).

Legend:
AXL (h) kinase = AXL (h) kinase (Homo sapiens (Human), UniProt P30530); experiment: AXL (h) kinase activity test (EZ Reader mobility shift, FLPeptide30); type: biochemical; settings: ATP 100 μM, AXL 1 nM
Method: The effect of the disclosed compounds as protein kinase inhibitors can be evaluated by the following experiments. The AXL (h) kinase activity of the compounds of the invention is tested by the following methods:
Reagents used in the experiment were AXL (Carna Bioscience, Cat No.: 08-107) and FLPeptide30 (PerkinElmer, Cat No.: 760430). The instruments involved were thermotank (Thermo Scientific), oscillator (QILINBEIER), EZ Reader (PerkinElmer, Cat No.: 122919), Non-contact stage pipetting system (Labcyte Inc., Cat No.: Echo 550), and non-contact nanoliter pipetting system (TECAN, Cat No.: EVO200).
Compound dilution: 1) Dissolve the compound in DMSO to the appropriate concentration; 2) Using TECAN EVO200 to dilute 10 concentrations in 384 microplates by three times gradient, the highest concentration is 1 mM; Echo550 was used to transfer 20 nL solution from the dilution plate to the test plate.
2) Add 15 μL solution 1 to each well of the test plate and incubate at room temperature for 30 minutes.
4) Add 5 μL solution 2 to start the reaction, and the final volume of each well is 20 μL.
5) Incubated at 25° C. for 90 min, and then added 75 μL stop solution (containing 0.5 M EDTA) to terminate the reaction.
6) The sample of each well was analyzed using EZ reader.
1) Based on the measured conversion rate (CR), the Remaining Activity (%) of the kinase was calculated according to the following function:
2) XLFit (Equation 201) software was used to fit IC50.
The above methods can be used to obtain the inhibitory IC50 and/or inhibitory constant Ki.

Ba/F3 AXL cells = experiment: Cell activity test: growth inhibition of Ba/F3 AXL cell line (CTG, 72 h); type: cell-based; settings: Mus musculus, BaF3
Method: This experiment was conducted by detecting the inhibitory effect of compounds on the growth of Ba/F3 AXL cell line and Ba/F3 parental cell line. Cells in logarithmic growth stage were harvested and counted by platelet counter. Trypan blue rejection method was used to detect cell viability to ensure that the cell viability was above 90%. Adjust cell concentration; 90 μL cell suspension was added to 96-well plates, respectively; Cells in 96-well plates were cultured overnight at 37° C., 5% CO2 and 95% humidity. A 10-fold drug solution was prepared, with the highest concentration of 10 μM, and a total of 9 concentrations were diluted at 3.16 times the ratio. 10 μL drug solution was added to each well of the 96-well plate inoculated with cells, and three wells were set for each drug concentration; 96-well plates were incubated at 37° C., 5% CO2 and 95% humidity for 72 h, and CTG analysis was performed. Thaw the CTG reagent and balance the cell plates to room temperature for 30 minutes. Add the same volume of CTG solution to each well and vibrate on a fixed-rail shaker for 5 minutes to crack the cells. Place the cell plates at room temperature for 20 minutes to stabilize the cold light signal and read the cold light value. The GraphPad Prism 5.0 software was used to analyze the data, and the nonlinear S-curve regression was used to fit the data to obtain the dose-effect curve, and the IC50 value was calculated accordingly. Cell survival rate (%)=(Lum drug to be tested −Lum culture medium control)/(Lum cell control−Lum culture medium control)×100%.

CYP2D6 = CYP2D6 (Homo sapiens (Human), UniProt P10635); experiment: Inhibition of human liver microsomes CYP450, 2D6; type: in vitro ADME; settings: compounds 10 μM (positive control: concentration not given)
Sequence of CYP2D6 (P10635 whole entry): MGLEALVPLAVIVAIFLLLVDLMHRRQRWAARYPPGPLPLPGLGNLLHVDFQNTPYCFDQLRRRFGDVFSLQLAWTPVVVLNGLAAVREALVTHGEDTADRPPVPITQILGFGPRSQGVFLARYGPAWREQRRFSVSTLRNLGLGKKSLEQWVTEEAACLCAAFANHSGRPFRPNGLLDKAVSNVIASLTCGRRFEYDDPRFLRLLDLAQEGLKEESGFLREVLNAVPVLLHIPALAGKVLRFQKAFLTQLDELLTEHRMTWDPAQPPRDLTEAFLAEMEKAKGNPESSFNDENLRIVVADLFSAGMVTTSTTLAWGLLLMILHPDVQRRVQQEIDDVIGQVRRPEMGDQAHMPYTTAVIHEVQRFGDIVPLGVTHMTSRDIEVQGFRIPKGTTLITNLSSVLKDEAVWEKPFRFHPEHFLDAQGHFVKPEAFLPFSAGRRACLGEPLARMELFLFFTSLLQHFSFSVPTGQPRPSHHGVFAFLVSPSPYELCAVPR

CYP3A4/5 = experiment: Inhibition of human liver microsomes CYP450, 3A4/5; type: in vitro ADME; settings: compounds 10 μM (positive control: concentration not given)
CYP3A4 [1] = target: T1, CYP3A4 (Homo sapiens (Human), UniProt P08684); settings: hepatocytes, 2 days, 10 μM
Method: (§1) Cryopreservation of human primary hepatocytes was resuscitated in medium after take out from liquid nitrogen. […] Plates were incubated at 37° C. and 5% CO2 for 4-6 hours to confirm the formation of monolayer cells attached to the wall. Then the adherent culture medium was changed into hepatocyte culture medium and the culture was continued overnight.
After the test compound and positive control inducer were co-incubated with cells, the medium was removed and mercaptoethanol was added for cell lysis. Total RNA in cells was extracted with RNA extraction kit, and then transcribed into cDNA with cDNA reverse transcription kit. The 10 μL cDNA template was taken and analyzed on the fluorescence quantitative PCR instrument to obtain the Ct value.
The gene expression data were corrected by internal reference 18S, and the relative expression differences were determined by the method of ΔΔCt commonly used in fluorescence quantitative PCR.
The ΔCt, ΔΔCt and relative expression difference values of the target genes were calculated according to the following formula:
ΔCt=Ct value of target gene−Ct value of internal reference 18S
ΔΔCt=ΔCt of experimental group or positive control group−ΔCt of blank control group
Relative expression difference (fold of induction)=2−ΔΔ^Ct

CYP3A4 [2] = target: T1, CYP3A4; settings: hepatocytes, 2 days, 10 μM; remark: listed apart in the source
Method: as §1
After the test compounds and positive control inducers were co-incubated with cells, the incubation medium was removed. […] After the samples were extracted and processed, the generation of metabolites and the kinase activities of CYP1A2, 2B6 and 3A4 was quantitatively detected by LC-MS/MS, respectively.
The induction of test substance on each subenzyme was determined by detecting the generation rate of metabolites of CYP450 subenzyme substrates. The relative activity of each subenzyme was expressed as a percentage of the relative blank control, and the data were calculated according to the following formula:
Fold of induction=sample subenzyme activity/blank subenzyme activity
Relative positive control activity (PC %)=(Fold of induction of sample group—Fold of induction of blank group)/(Fold of induction of positive control group—Fold of induction of blank group)×100

CYP1A2 = CYP1A2 (Homo sapiens (Human), UniProt P05177); settings: microsomes, 10 µM
Sequence of CYP1A2 (P05177 whole entry): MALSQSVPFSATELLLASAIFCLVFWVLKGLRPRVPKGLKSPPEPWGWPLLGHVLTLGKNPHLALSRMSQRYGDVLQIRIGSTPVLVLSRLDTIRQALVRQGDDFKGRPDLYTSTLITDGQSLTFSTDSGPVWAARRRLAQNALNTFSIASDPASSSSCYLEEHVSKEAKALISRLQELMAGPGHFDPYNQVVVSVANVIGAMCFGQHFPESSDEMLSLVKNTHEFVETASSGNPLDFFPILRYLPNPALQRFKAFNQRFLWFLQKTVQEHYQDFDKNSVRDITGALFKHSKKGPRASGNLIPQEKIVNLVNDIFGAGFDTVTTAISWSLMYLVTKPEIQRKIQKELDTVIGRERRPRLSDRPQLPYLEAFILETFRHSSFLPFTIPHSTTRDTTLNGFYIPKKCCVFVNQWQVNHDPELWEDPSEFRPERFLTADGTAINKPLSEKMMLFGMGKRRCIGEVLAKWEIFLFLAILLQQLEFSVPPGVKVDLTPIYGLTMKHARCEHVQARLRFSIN

Sequence of AXL (h) kinase (P30530 473-894): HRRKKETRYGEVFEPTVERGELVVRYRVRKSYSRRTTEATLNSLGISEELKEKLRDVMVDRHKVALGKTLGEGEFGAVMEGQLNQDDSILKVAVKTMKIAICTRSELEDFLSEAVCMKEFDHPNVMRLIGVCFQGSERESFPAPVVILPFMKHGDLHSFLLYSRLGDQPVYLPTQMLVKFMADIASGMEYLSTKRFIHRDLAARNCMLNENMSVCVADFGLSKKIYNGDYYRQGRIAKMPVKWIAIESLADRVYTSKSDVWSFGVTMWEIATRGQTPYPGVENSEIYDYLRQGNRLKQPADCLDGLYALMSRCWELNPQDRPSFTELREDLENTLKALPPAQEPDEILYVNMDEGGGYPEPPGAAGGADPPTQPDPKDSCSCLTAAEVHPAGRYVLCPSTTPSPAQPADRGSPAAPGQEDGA

| SMILES | IC50 (AXL (h) kinase) | IC50 (Ba/F3 AXL cells) | Inhibitory rate (%) 2D6 (CYP2D6) | Inhibitory rate (%) 3A4/5 (CYP3A4/5) | Gene expression CYP3A4 Fold of induction (CYP3A4 [1]) | Enzymatic activity CYP3A4 Fold of induction (CYP3A4 [2]) | Inhibitory rate (%) 1A2 (CYP1A2) |
| --- | --- | --- | --- | --- | --- | --- | --- |
| CC(C)C(=O)N1CCC(c2cc(-c3ccc(NC(=O)c4c5n(n(-c6ccccc6)c4=O)CCOC5)cc3F)c3c(N)ncnn23)CC1 [example 8, N-(4-(4-amino-7-(1-isobutyrylpiperidin-4-yl)pyrrolo[2,1-f][1,2,4]triazin-5-yl)-3-fluorophenyl)-2-oxo-1-phenyl-2,4,6,7-tetrahydro-1H-pyrazolo[5,1-c][1,4]oxazine-3-carboxamide] | 5 to 50 nM | < 5 nM | No inhibition |  |  |  |  |
| CC(C)C(=O)N1CCC(c2cc(-c3ccc(NC(=O)c4c5n(n(-c6ccccc6)c4=O)CCCC5)nc3)c3c(N)ncnn23)CC1 [example 11, N-(5-(4-amino-7-(1-isobutyrylpiperidin-4-yl)pyrrolo[2,1-f][1,2,4]triazin-5-yl)pyridin-2-yl)-2-oxo-1-phenyl-1,2,4,5,6,7-hexahydropyrazolo[1,5-a]pyridine-3-carboxamide] |  | < 5 nM | No inhibition | No inhibition |  |  |  |
| CC(C)C(=O)N1CCC(c2cc(-c3ccc(NC(=O)c4c5n(n(-c6ccccc6)c4=O)CCCC5)cc3F)c3c(N)ncnn23)CC1 [example 16, N-(4-(4-amino-7-(1-isobutyrylpiperidin-4-yl)pyrrolo[2,1-f][1,2,4]triazin-5-yl)-3-fluorophenyl)-2-oxo-1-phenyl-1,2,4,5,6,7-hexahydropyrazolo[1,5-a]pyridine-3-carboxamide] | 5 to 50 nM | < 5 nM |  | No inhibition | 276 | 1.26 |  |
| Nc1ncnn2c(C3CCC(O)CC3)cc(-c3ccc(NC(=O)c4c5n(n(-c6ccccc6)c4=O)CCCC5)nc3)c12 (stereo not drawn) [example 21, N-(5-(4-amino-7-(4-hydroxycyclohexyl)pyrrolo[2,1-f][1,2,4]triazin-5-yl)pyridin-2-yl)-2-oxo-1-phenyl-1,2,4,5,6,7-hexahydropyrazolo[1,5-a]pyridine-3-carboxamide] |  | < 5 nM | No inhibition | No inhibition |  |  | No inhibition |
| Nc1ncnn2c1c(-c1ccc(NC(=O)c3c4n(n(-c5ccccc5)c3=O)CCOC4)cc1F)cc2[C@H]1CC[C@H](O)CC1 [example 22, N-(4-(4-amino-7-((1r,4r)-4-hydroxycyclohexyl)pyrrolo[2,1-f][1,2,4]triazin-5-yl)-3-fluorophenyl)-2-oxo-1-phenyl-2,4,6,7-tetrahydro-1H-pyrazolo[5,1-c][1,4]oxazine-3-carboxamide] | 5 to 50 nM | < 5 nM |  | No inhibition | 1.31 | 1.02 |  |
| Nc1ncnn2c1c(-c1ccc(NC(=O)c3c4n(n(-c5ccccn5)c3=O)CCCC4)cc1F)cc2[C@H]1CC[C@H](O)CC1 [example 30, N-(4-(4-amino-7-((1r,4r)-4-hydroxycyclohexyl)pyrrolo[2,1-f][1,2,4]triazin-5-yl)-3-fluorophenyl)-2-oxo-1-(pyridin-2-yl)-1,2,4,5,6,7-hexahydropyrazolo[1,5-a]pyridine-3-carboxamide] | < 5 nM | < 5 nM |  | No inhibition | 1.58 | 0.836 |  |
| Nc1ncnn2c1c(-c1ccc(NC(=O)c3c4n(n(-c5ccccn5)c3=O)CCOC4)cc1F)cc2[C@H]1CC[C@H](O)CC1 [example 31, N-(4-(4-amino-7-((1r,4r)-4-hydroxycyclohexyl)pyrrolo[2,1-f][1,2,4]triazin-5-yl)-3-fluorophenyl)-2-oxo-1-(pyridin-2-yl)-2,4,6,7-tetrahydro-1H-pyrazolo[5,1-c][1,4]oxazine-3-carboxamide] | 5 to 50 nM | < 5 nM |  | No inhibition | 0.944 | 0.913 |  |
